# Columns and labels:
# hNav1.7 = molecular target: T1, hNav1.7 (Homo sapiens, UniProt Q15858); experiment: Manual patch clamp experiment hNav1.7 (CHO-hNav1.7 stable cell line); format: cell-based; settings: for inhibition at 0.1 µM: compound at 100 nM, read-out: Inhibition of Nav1.7 100 nM(%); for inhibition at 1 µM: compound at 1000 nM, read-out: Inhibition of Nav1.7 1000 nM(%)
# T1 construct: host or cells: CHO
# Excerpt: Assay 1: Manual Patch Clamp Experiment of Sodium Ion (hNav1.7, hNav1.5 and hNaV1.8) and Calcium Ion (hCav3.2) Channels
# hNav1.7, hNav1.5 Manual Patch Clamp Experiment:
# Patch voltage clamp electrophysiology allows for the direct measurement and quantification of current block of voltage-gated sodium channels (NaV's), and allows the determination of the time and voltage-dependence of block which has been interpreted as differential binding to the resting, open and inactivated states of the sodium channel to reflect the compound's inhibitory or activating effects (Hille, B., Journal of General Physiology (1977), 69: 497-515).
# Representative compounds of the present invention were subject to a manual patch clamp experiment and the purpose of this study was to test the effect of compounds on this ion channel current on a stable cell line transfected with a specific ion channel using a manual patch clamp method. The used stable cell lines CHO-hNav1.7 and HEK-hNav1.5 were from Genionics and WuXi Apptec (Shanghai) respectively.
# Manual patch clamp experimental program is as follows:
# (1) Preparation of solutions and compounds: The whole cell patch clamp technique was used to record hNav1.7 and hNav1.5 currents. In the experiment, the composition of extracellular fluid (mM): HEPES: 5, NaCl: 40, KCl: CaCl2: 1, MgCl2: 1, CdCl2: 0.1, TEA-Cl: 20. The pH was adjusted to 7.3 with NaOH and the osmotic pressure was adjusted to 310-320 mOsm with sucrose, filtered and stored at 4° C. The composition of the intracellular fluid (mM): HEPES: 10, NaCl: 10, CsOH: 5, CsF: 140, EGTA: 1. The pH was adjusted to 7.3 with CsOH and the osmotic pressure was adjusted to 280-290 mOsm with sucrose, filtered and stored at −20° C.
# The positive control and the test compound were firstly dissolved in 100% DMSO (Sigma-Aldrich, D2650), configured as stock solution at a concentration (100 nM, 1000 nM).) The above stock solution was serially diluted with DMSO prior to the experiment, the solution was further diluted with extracellular solution to obtain the test solution of the desired concentration.
# (2) Manual Patch Clamp Experiment: The cell suspension was added to a 35 mm petri dish and placed on an inverted microscope stage. The cells were perfused with an extracellular fluid and the flow rate was 1-2 mL/min after cell adherence. The glass microelectrode was prepared in two steps by a microelectrode puller with an inlet water resistance of 2-5 MΩ. A/D-D/A digital-analog conversion was performed by Digidata 1440 (Molecular Devices) and pCLAMP software (version 10.2, Molecular Devices) for stimulation and signal acquisition; the signal was amplified by patch clamp amplifier (Multiclamp 700B, Molecular Devices), and filtering is 4 KHz.
# Two different voltage stimulation procedures were used in the hNav1.7 and hNav1.5 manual patch clamp experiments.
# One is the inactivation stimulation program, the clamp potential is set at V1/2 of the corresponding channel, i.e., about 50% of the channels are inactivated, then the voltage is applied to −120 mV for 50 ms, then depolarized to −10 mV for 20 ms leading to sodium current, and finally returned to the clamp potential. This stimulation program can also be called channel state-dependent voltage stimulation program.
# The other is the non-inactivation stimulation program, the clamp potential is maintained at −120 mV, voltage stimulation is given to −10 mV for 20 ms leading to sodium current, and finally returned to the clamp potential. That is, all channels have not experienced inactivation status, but activate directly from the resting state under the conditions of the stimulation program.
# The time intervals of these two voltage stimulation programs were 10 s. The inhibitory effect of the compound was calculated by the change of the current before and after dosing, the IC50 value was fitted by the Hill equation.
# [1] = molecular target: T2, hERG potassium ion channel (Homo sapiens, UniProt Q12809); experiment: Effect on hERG potassium ion channel (CHO hERG cells, manual patch clamp); format: cell-based; settings: final 10 μM test concentration, read-out: hERG inhibitory concentration IC50
# T2 construct: host or cells: CHO
# Method: Assay 2: Effect on hERG Potassium Ion Channel 2.1 Cell Culture 2.1.1 Cells used in this experiment were CHO cell lines (supplied by Sophion Bioscience, Denmark) which were hERG cDNA transfectant and stably express hERG channels, and cell progeny was P15. Cells were cultured in medium containing the following ingredients Invitrogen): Ham's F12 medium, 10% (v/v) inactivated fetal bovine serum, […] Geneticin. 2.1.2 CHO hERG cells were grown in Petri dishes containing the above medium and cultured in an incubator containing 5% CO2 at 37° C. CHO hERG cells were transferred onto round glass plates in Petri dishes, and grown on the same culture medium under culture conditions as above for 24 h to 48 h prior to the electrophysiological experiments, and the density of CHO hERG cells on each round glass plate needs to meet the requirements that the vast majority of cells are independent and individual. 2.2 Experimental Solution The following solutions (supplied by Sophion) were used for electrophysiological recording as shown in Table 3. The reagents used in this test were provided by Sigma. [table] 2.3 Electrophysiological Recording System In this experiment, whole-cell current recording was performed using a manual patch clamp system (HEKA EPC-10 signal amplification and digital conversion system, purchased from HEKA Electronic, Germany). The round glass slide, surface of which CHO hERG cells were grown on was placed in an electrophysiological recording slot under an inverted microscope. Extracellular fluid was used for steady perfision in recording slot (approximately 1 ml per minute). A conventional whole-cell patch clamp current recording technique was used in the experiment. Unless otherwise specified, experiments were performed at normal room temperature (25° C.). Cell clamping was at −80 mV. Cell clamping voltage depolarized to +20 mV to activate hERG potassium channel, clamping to −50 mV after 5 sec to eliminate inactivation and generate tail currents. The tail current peak was used as a value for hERG current. The hERG potassium current recorded in the above steps could be superfused for test drug after the steady perfusion state of the extracellular fluid in the recording slot is stabilized until the inhibition of the hERG current by the drug reached a steady state. The coincidence of the last three consecutive current recording lines was generally used as a criterion to determine whether the state is stable. After reaching a steady state, perfused with extracellular fluid until hERG current returned to the value before the drug adding. One or more drugs could be tested on a single cell, or multiple concentrations of the same drug, but needed to be rinsed with extracellular fluid between different drugs. […] 2.4 Compound Treatment and Dilution The compound was firstly dissolved in DMSO to a concentration of 10 mM and then the compound was diluted 1000-fold to the final […] test concentration using an extracellular solution. The final concentration of DMSO in the compound test solution was equal to 0.1%. […] All stock solutions and test solutions were subjected to regular 5-10 minute sonication and shaken to ensure complete dissolution of the compound. 2.5 Data Analysis The test data were analyzed by the data analysis software provided by HEKA Patchmaster (V2x73.2), Microsoft Excel and Graphpad Prism 5.0.
# T1 sequence (Q15858 whole entry): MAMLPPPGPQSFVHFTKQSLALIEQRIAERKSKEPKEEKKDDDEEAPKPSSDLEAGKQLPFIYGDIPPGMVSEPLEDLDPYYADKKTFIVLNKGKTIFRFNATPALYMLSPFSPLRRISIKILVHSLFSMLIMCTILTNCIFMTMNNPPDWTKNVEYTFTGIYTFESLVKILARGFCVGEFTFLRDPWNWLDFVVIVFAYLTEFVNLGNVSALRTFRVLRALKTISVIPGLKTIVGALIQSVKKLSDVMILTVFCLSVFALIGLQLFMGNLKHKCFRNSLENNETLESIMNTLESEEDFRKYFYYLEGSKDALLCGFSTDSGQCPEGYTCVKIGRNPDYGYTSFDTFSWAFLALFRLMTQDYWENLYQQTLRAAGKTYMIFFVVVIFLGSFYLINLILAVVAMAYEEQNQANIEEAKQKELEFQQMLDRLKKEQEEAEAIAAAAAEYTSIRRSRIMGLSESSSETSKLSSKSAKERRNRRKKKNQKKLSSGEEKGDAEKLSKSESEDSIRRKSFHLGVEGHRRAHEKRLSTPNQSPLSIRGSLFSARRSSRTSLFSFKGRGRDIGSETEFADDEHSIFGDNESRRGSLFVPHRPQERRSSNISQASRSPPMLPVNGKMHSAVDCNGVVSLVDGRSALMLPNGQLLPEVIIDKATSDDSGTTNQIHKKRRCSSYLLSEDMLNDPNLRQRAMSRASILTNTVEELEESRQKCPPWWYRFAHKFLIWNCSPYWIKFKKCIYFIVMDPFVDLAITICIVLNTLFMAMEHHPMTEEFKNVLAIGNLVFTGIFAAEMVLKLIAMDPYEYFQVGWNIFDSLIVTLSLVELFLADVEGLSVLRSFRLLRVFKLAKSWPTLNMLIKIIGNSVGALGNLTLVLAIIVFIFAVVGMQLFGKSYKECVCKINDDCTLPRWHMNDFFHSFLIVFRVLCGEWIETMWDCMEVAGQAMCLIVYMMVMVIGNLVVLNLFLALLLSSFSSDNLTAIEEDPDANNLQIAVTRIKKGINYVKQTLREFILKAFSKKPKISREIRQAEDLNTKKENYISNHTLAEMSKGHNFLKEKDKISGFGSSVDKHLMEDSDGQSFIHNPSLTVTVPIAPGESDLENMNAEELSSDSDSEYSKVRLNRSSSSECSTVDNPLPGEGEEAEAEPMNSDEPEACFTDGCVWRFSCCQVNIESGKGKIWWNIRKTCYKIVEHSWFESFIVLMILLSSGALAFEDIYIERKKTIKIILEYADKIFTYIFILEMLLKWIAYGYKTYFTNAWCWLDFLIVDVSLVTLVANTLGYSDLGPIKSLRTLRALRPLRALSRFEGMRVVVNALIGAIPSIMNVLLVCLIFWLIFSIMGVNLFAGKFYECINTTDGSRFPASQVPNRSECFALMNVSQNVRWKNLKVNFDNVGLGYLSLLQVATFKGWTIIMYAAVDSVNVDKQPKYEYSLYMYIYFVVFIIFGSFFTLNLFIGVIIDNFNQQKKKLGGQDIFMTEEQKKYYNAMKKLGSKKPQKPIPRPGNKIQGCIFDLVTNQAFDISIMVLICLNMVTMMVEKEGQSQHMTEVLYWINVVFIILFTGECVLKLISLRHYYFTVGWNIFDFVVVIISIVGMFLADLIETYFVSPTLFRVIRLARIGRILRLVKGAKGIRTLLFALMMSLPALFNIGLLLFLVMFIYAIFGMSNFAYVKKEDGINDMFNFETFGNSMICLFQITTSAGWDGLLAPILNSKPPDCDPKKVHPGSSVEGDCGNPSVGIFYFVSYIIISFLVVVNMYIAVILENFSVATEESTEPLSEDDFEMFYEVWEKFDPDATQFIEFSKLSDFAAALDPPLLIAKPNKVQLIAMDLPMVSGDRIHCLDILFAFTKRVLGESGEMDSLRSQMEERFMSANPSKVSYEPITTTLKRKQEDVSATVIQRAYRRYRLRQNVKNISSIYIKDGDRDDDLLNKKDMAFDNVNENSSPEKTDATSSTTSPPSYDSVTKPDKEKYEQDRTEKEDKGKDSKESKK
# T2 sequence (Q12809 whole entry): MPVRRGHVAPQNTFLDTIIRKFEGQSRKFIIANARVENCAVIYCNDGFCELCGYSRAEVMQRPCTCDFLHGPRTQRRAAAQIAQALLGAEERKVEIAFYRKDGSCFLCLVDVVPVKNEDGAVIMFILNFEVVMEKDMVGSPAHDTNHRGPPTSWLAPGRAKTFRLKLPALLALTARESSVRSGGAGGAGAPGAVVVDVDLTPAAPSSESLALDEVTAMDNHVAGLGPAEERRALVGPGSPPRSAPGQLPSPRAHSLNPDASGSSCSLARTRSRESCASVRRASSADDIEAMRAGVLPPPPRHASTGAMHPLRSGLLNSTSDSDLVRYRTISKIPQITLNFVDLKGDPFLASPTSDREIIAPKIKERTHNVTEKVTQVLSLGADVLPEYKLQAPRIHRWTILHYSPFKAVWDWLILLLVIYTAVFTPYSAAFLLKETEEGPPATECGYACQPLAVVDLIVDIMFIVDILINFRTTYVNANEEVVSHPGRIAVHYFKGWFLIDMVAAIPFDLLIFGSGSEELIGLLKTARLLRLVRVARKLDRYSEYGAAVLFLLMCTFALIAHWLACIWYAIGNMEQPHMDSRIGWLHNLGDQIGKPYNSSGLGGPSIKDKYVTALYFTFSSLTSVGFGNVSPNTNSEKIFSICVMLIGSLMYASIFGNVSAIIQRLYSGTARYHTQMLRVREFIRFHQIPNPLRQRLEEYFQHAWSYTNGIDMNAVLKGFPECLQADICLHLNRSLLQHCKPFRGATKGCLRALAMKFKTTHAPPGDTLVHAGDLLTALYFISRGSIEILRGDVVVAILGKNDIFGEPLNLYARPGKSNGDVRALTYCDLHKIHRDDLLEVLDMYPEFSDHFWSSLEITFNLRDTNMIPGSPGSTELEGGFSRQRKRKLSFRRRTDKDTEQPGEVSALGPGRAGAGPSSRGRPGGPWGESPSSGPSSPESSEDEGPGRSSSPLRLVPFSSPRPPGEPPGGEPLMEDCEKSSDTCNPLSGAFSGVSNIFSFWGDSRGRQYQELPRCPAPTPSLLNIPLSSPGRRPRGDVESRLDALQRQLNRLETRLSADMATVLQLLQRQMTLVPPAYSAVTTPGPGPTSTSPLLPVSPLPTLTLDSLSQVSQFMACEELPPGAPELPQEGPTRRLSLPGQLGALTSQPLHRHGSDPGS
inhibition at 0.1 µM (hNav1.7) [%],inhibition at 1 µM (hNav1.7) [%],SMILES,IC50 [1] [µM]
83.3,100,Cc1cc(N2CCN(Cc3cc(F)c(C(=O)NS(=O)(=O)C4CC4)cc3Cl)CC2)c(F)cc1Cl [Compound Z-186],> 10
89.7,100,Cc1c(Cl)ccc(N2CCN(Cc3cc(F)c(C(=O)NS(=O)(=O)C4CC4)cc3Cl)CC2)c1Cl [Compound Z-187],> 10
90.8,99.5,Cc1cc(N2CCN(Cc3cc(F)c(C(=O)NS(=O)(=O)C4CC4)cc3Cl)CC2)c(C)cc1Cl [Compound Z-183],> 10
